Article PMC8447900 (Chemical Science, 2021)

Test system: hENT1
Type: cell-based, human
Conditions: PK15-ENT1 cells

| SMILES | effect of AZD8055 on activity of isomer 1a (AZD8055 (5 μM) combined with isomer 1a) | effect of rapamycin on potency of isomer 1a (rapamycin (5 μM) combined with isomer 1a) |
| --- | --- | --- |
| COc1ccc(-c2ccc3c(N4CCOC[C@@H]4C)nc(N4CCOC[C@@H]4C)nc3n2)cc1CO [AZD8055] | negligible effect on the activity of isomer 1a |  |
| CO[C@H]1C[C@@H]2CC[C@@H](C)[C@@](O)(O2)C(=O)C(=O)N2CCCC[C@H]2C(=O)O[C@H]([C@H](C)C[C@@H]2CC[C@@H](O)[C@H](OC)C2)CC(=O)[C@H](C)/C=C(\C)[C@@H](O)[C@@H](OC)C(=O)[C@H](C)C[C@H](C)/C=C/C=C/C=C/1C [Rapamycin] |  | antagonizes isomer 1a inhibition of hENT1-mediated thymidine uptake |
